Experimental data: patent publication US7763624B2, “Substituted pyrazolo[3,4-d]pyrimidines as ACK-1 and LCK inhibitors” (Amgen Inc., priority 2005, dated 2010)
Where two headings read alike, the source gives them in different places.

Key:
[1] = target: T1, LCK (Homo sapiens, UniProt P06239); assay: LCK-Homogeneous Time Resolved Fluorescent (HTRF) Kinase Assay; type: biochemical
T1 construct: 15 μL of LCK KD GST (225-509) for a final volume of 40 μL; GST
Experimental: LCK-Homogeneous Time Resolved Fluorescent (HTRF) Kinase Assay
The LCK HTRF assay begins with LCK in the presence of ATP phosphorylating the biotinylated peptide Gastrin. The reaction incubates for 90 min. To quench the assay detection reagents are added which both stop the reaction by diluting out the enzyme and chelating the metals due to the presence of EDTA. Once the detection reagents are added the assay incubates for 30 min to allow for equilibration of the detection reagents.
Buffer conditions are as follows: 50 mM HEPES pH 7.5, 50 mM NaCl, 20 mM MgCl2, 5 mM MnCl2, 2 mM DTT, 0.05% BSA.
The assay is quenched and stopped with 160 μL of a detection reagent. Detection reagents are as follows: Buffer made of 50 mM Tris, pH 7.5, 100 mM NaCl, 3 mM EDTA, 0.05% BSA, 0.1% Tween20.
The assay plate is read in either a Discovery or a RubyStar.

[2] = test system: C8 cells; assay: ACK1 Cell Based Assay (survival under low serum, Cytotox One); details: read-out: ACK1 Cell-based IC50
Experimental: ACK1 Cell Based Assay The ACK1 cell based assay is designed to find inhibitors of ACK1 kinase activity which would be prime candidates for the development of anticancer drugs. […] After 20 to 24 h incubation at 37° C. and 5% CO2, cell viability is determined using the Cytotox One kit (Promega) according to the manufacturer's instructions.

[3] = target: T2, ACK1 (Homo sapiens, UniProt Q07912); assay: ACK1 Enzymatic Assay (PGT/autophosphorylation ELISA); type: biochemical
T2 construct: a fusion of an N-terminal (His)6 Tag with amino acids 117 to 489 of ACK1; (His)6 (N); made in house; host or cells: baculovirus infected Hi-5 insect cells
T2 sequence (Q07912 117-489): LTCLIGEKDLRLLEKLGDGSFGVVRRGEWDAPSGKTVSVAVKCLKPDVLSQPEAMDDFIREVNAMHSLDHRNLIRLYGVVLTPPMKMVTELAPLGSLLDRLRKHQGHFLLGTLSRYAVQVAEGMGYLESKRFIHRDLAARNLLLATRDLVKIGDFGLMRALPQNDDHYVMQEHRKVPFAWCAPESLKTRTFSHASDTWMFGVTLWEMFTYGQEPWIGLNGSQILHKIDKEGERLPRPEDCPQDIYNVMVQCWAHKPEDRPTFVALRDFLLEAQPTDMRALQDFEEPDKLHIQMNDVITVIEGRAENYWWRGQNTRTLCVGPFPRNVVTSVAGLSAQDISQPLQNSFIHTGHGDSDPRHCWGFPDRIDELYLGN
Experimental: IC50 values of compounds of the invention may be assessed as follows. The ACK1 kinase assay utilizes a protein expressed in baculovirus infected Hi-5 cells (a fusion of an N-terminal (His)6 Tag with amino acids 117 to 489 of ACK1) purified by affinity chromatography on a Ni-NTA column. The substrate for the reaction is ACK1 itself (autophosphorylation) and poly-Glutamic acid-Tyrosine (PGT (4:1), Sigma catalog #PO275). The PGT is coated to Nunc 96 well plates at 80 μg/mL overnight at 4° C. The morning after coating, the plates are washed twice, and […] reaction buffer (10 mM Hepes, pH 7.6; 20 mM MgCl2; 75 mM NaCl, 0.125% TWEEN20 (polyoxyethylene sorbitan monolaurate); 1 mM DTT) with 5 μM ATP are added to each well. Test compounds are added in […] DMSO, and the reaction is started by addition of […] kinase in assay buffer. The reaction proceeds for 2 h at room temperature. Next, the plates are washed four times, and the level of tyrosine phosphorylation in a given well is quantified by standard ELISA assay utilizing a phosphotyrosine antibody (PY20, Pierce).

[4] = ACK1-dependent C8 cells, 0.125% FCS, 20 to 24 h

T1 sequence (P06239 225-509): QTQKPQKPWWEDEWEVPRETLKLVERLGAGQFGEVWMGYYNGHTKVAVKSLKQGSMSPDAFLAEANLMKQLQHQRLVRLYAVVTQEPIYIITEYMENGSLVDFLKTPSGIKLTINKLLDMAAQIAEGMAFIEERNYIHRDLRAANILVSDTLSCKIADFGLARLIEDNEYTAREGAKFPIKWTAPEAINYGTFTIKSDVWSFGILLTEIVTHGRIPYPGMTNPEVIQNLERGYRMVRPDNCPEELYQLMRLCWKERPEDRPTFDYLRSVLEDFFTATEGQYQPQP

Row | Compound | Ki [1] [nM] | IC50 [2, 4] [nM] | Ki [3] [nM] | IC50 [2] [nM]
1 | Cc1cccc(C)c1Nc1nn(CCC2COCO2)c2nc(Nc3ccccc3)ncc12 (stereo not drawn) [Compound 35, 1-(2-(1,3-dioxolan-4-yl)ethyl)-N^3-(2,6-dimethylphenyl)-N^6-phenyl-1H-pyrazolo[3,4-d]pyrimidine-3,6-diamine] | < 10 | > 100 | 10 to 100 | –
2 | COC(C)(C)CCn1nc(Nc2c(Cl)cccc2Cl)c2ccc(Nc3ccc(N4CCN(C(=O)OCC5c6ccccc6-c6ccccc65)CC4)cc3)cc21 [Compound 81, (9H-Fluoren-9-yl)methyl 4-(4-(3-(2,6-dichlorophenylamino)-1-(3-methoxy-3-methyl-butyl)-1H-indazol-6-ylamino)phenyl)piperazine-1-carboxylate] | < 10 | – | 10 to 100 | > 100
3 | COC(C)(C)CCn1nc(Nc2c(C)cc(C)cc2C)c2cnc(Nc3ccccc3)nc21 [Compound 76, 1-(3-Methoxy-3-methyl-butyl)-N^6-phenyl-N^3-(2,4,6-trimethyl-phenyl)-1H-pyrazolo[3,4-d]pyrimidine-3,6-diamine] | < 10 | – | > 100 | > 100
4 | Cc1cccc(C)c1Nc1nn(CCC(O)CN2CCCC2)c2nc(Nc3ccccc3)ncc12 (stereo not drawn) [Compound 45, 4-(3-(2,6-dimethylphenylamino)-6-(phenylamino)-1H-pyrazolo[3,4-d]pyrimidin-1-yl)-1-(pyrrolidin-1-yl)butan-2-ol] | < 10 | > 100 | > 100 | –
5 | Clc1cccc(Cl)c1Nc1nn(CCC2CCNCC2)c2nc(Nc3ccccc3)ncc12 [Compound 94, N^3-(2,6-dichlorophenyl)-N^6-phenyl-1-(2-(piperidin-4-yl)ethyl)-1H-pyrazolo[3,4-d]pyrimidine-3,6-diamine] | < 10 | > 100 | 10 to 100 | –
6 | C=CCCn1nc(Nc2c(Cl)cccc2Cl)c2cnc(Nc3ccccc3)nc21 [Compound 87, 1-(But-3-enyl)-N^3-(2,6-dichlorophenyl)-N^6-phenyl-1H-pyrazolo[3,4-d]pyrimidine-3,6-diamine] | < 10 | > 100 | 10 to 100 | –
7 | Cc1cccc(C)c1Nc1nn(CCC(O)CO)c2nc(Nc3ccccc3)ncc12 (stereo not drawn) [Compound 34, 4-(3-(2,6-dimethylphenylamino)-6-(phenylamino)-1H-pyrazolo[3,4-d]pyrimidin-1-yl)butane-1,2-diol] | < 10 | 10 to 100 | 10 to 100 | –
8 | COC(C)(C)CCn1nc(Nc2c(C)cccc2C)c2ccc(Nc3ccc(N4CC(C)NC(C)C4)cc3)cc21 (stereo not drawn) [Compound 60, N^3-(2,6-Dimethylphenyl)-1-N^6-(4-(3,5-dimethylpiperazin-1-yl)phenyl)-1-(3-methoxy-3-methylbutyl)-1H-indazole-3,6-diamine] | < 10 | 10 to 100 | < 10 | –
9 | CN(C)CCCn1nc(Nc2c(Cl)cccc2Cl)c2cnc(Nc3ccccc3)nc21 [Compound 89, N^3-(2,6-Dichlorophenyl)-1-(3-(dimethylamino)propyl)-N^6-phenyl-1H-pyrazolo[3,4-d]pyrimidine-3,6-diamine] | < 10 | 10 to 100 | < 10 | –
10 | Cc1cccc(C)c1Nc1nn(CCCN2CCCCC2)c2nc(Nc3ccc(N4CCNCC4)cc3)ncc12 [Compound 49, N^3-(2,6-Dimethyl-phenyl)-N^6-(4-piperazin-1-yl-phenyl)-1-(3-piperidin-1-yl-propyl)-1H-pyrazolo[3,4-d]pyrimidine-3,6-diamine] | < 10 | > 100 | 10 to 100 | –
11 | Cc1cccc(C)c1Nc1nn(CC2CCOCC2)c2nc(Nc3ccc(N4CCNCC4)cc3)ncc12 [Compound 61] | < 10 | < 10 | < 10 | –
12 | COC(C)(C)CCn1nc(Nc2c(Cl)cccc2Cl)c2cnc(Nc3ccc(OCCN4CCCC4)c(F)c3)nc21 [Compound 82, N^3-(2,6-Dichlorophenyl)-N^6-(3-fluoro-4-(2-(pyrrolidin-1-yl)ethoxy)phenyl)-1-(3-methoxy-3-methylbutyl)-1H-pyrazolo[3,4-d]pyrimidine-3,6-diamine] | < 10 | – | < 10 | 10 to 100
13 | COC(C)(C)CCn1nc(Nc2c(Cl)cccc2Cl)c2ccc(Nc3ccc(N4CCNCC4)cc3)cc21 [Compound 84] | < 10 | 10 to 100 | 10 to 100 | –
14 | Cc1cccc(C)c1Nc1nn(CCCN(C)C)c2nc(Nc3ccccc3)ncc12 [Compound 38, 1-(3-(Dimethylamino)propyl)-N^3-(2,6-dimethylphenyl)-N^6-phenyl-1H-pyrazolo[3,4-d]pyrimidine-3,6-diamine] | < 10 | 10 to 100 | 10 to 100 | –
15 | (R)—N^3-(2,6-Dimethylphenyl)-1-(3-(2-(methoxymethyl)pyrrolidin-1-yl)propyl)-1H-indazole-3,6-diamine [Compound 68] | 10 to 100 | > 100 | > 100 | –
16 | N^3-(2,6-dimethylphenyl)-1-(2-(4-methylpiperazin-1-yl)ethyl)-N^6-phenyl-1H-indazole-3,6-diamine [Compound 72] | < 10 | > 100 | 10 to 100 | –
17 | N^3-(2,6-Dimethylphenyl)-1-(3-methoxy-3-methylbutyl)-1H-indazole-3,6-diamine [Compound 58] | < 10 | > 100 | > 100 | –
18 | COCCOc1ccc(Nc2ncc3c(Nc4c(C)cccc4C)nn(CCN4CCOCC4)c3n2)cc1 [Compound 52, N^3-(2,6-Dimethyl-phenyl)-N^6-[4-(2-methoxy-ethoxy)-phenyl]-1-(2-morpholin-4-yl-ethyl)-1H-pyrazolo[3,4-d]pyrimidine-3,6-diamine] | < 10 | > 100 | 10 to 100 | –
19 | CNCCCn1nc(Nc2c(C)cccc2C)c2cnc(Nc3ccccc3)nc21 [Compound 39, N^3-(2,6-dimethylphenyl)-1-(3-(methylamino)propyl)-N^6-phenyl-1H-pyrazolo[3,4-d]pyrimidine-3,6-diamine] | < 10 | > 100 | 10 to 100 | –
20 | 2-(3-(2,6-dimethylphenylamino)-6-(phenylamino)-1H-indazol-1-yl)acetic acid [Compound 69] | < 10 | > 100 | 10 to 100 | –
21 | N^3-(2,6-dichlorophenyl)-1-(3-methoxy-3-methylbutyl)-N^6-[4-(4-methyl-piperazin-1-yl)-phenyl]-1H-indazole-3,6-diamine [Compound 80] | < 10 | 10 to 100 | < 10 | –
22 | COC(C)(C)CCn1nc(Nc2c(C)cc(F)cc2C)c2cnc(Nc3ccc(N4CCN(C)CC4)cc3)nc21 [Compound 79, N^3-(4-Fluoro-2,6-dimethyl-phenyl)-1-(3-methoxy-3-methyl-butyl)-N^6-[4-(4-methyl-piperazin-1-yl)-phenyl]-1H-pyrazolo[3,4-d]pyrimidine-3,6-diamine] | < 10 | 10 to 100 | 10 to 100 | –
23 | COC[C@H]1CCCN1CCCn1nc(Nc2c(C)cccc2C)c2ccc(Nc3ccc(N4CCNCC4)cc3)cc21 [Compound 67, (R)—N^3-(2,6-Dimethylphenyl)-1-(3-(2-(methoxymethyl)pyrrolidin-1-yl)propyl)-N^6-(4-piperazin-1-yl)phenyl-1H-indazole-3,6-diamine] | < 10 | 10 to 100 | < 10 | –
24 | COC(C)(C)CCn1nc(Nc2c(C)cc(C)cc2C)c2cnc(Nc3ccc(N4CCN(C)CC4)cc3)nc21 [Compound 77] | < 10 | – | 10 to 100 | 10 to 100
25 | Cc1cccc(C)c1Nc1nn(CCC(C)O)c2nc(Nc3ccccc3)ncc12 (stereo not drawn) [Compound 46, 4-(3-(2,6-dimethylphenylamino)-6-(phenylamino)-1H-pyrazolo[3,4-d]pyrimidin-1-yl)butan-2-ol] | < 10 | > 100 | 10 to 100 | –
26 | COC(C)(C)CCn1nc(Nc2ccccc2)c2cnc(Nc3ccccc3)nc21 [Compound 74, 1-(3-Methoxy-3-methyl-butyl)-N^3, N^6-diphenyl-1H-pyrazolo[3,4-d]pyrimidine-3,6-diamine] | > 100 | – | > 100 | > 100
